Source: patent US12252459B2, “Hydrazone amide derivatives and use thereof in preparation of anti-osteoporosis drugs” (SHENZHEN CELL INSPIRE PHARMACEUTICAL DEVELOPMENT CO., LTD., priority 2019, dated 2025)

Key:
[1] = system: RANKL-induced osteoclast differentiation of RAW264.7 cells; experiment: Osteoclast differentiation inhibition experiment (RANKL-induced, TRAP staining); format: cell-based; conditions: for IC50: RAW264.7 cells, 100 ng/ml RANKL, 5 days, TRAP staining, osteoclasts with 3 or more nuclei counted; for Therapeutic index SI (CC50/IC50): selective inhibition constant = CC50 (RAW264.7 cytotoxicity) / IC50 (osteoclast differentiation)
Experimental: Example 33: Osteoclast Differentiation Inhibition Experiment
(§1) RAW264.7 cells were cultured in vitro using DMEM high glucose medium containing 10% fetal bovine serum at 37° C. under 5% CO2 for routine maintenance culture and passage.
(§2) S2. Compound Intervention
The logarithmic growth phase cells were collected and formulated into a cell suspension at a concentration of 2×10^4 cells/mL, and the cell suspension were added to a 96-well cell culture plate. After culturing in a carbon dioxide incubator for 24 hours, the culture medium was replaced with a medium containing 100 ng/ml RANKL and the compound at different concentrations to continue culturing for 5 days, while changing the medium containing the same RANKL concentration and compound concentration every 2 days. The osteoclasts were stained with the TRAP staining method and measured on day 5. Three wells were set for each concentration, and a control group without the compound treatment was set for comparison.
The differentiated osteoclasts were stained with TRAP kit, and the number of osteoclasts fused by 3 or more nuclei was counted.
(§3) S4. Processing of Results
The inhibition rate of each compound on RANKL-induced osteoclast differentiation was calculated according to the following equation: […]
An osteoclast differentiation inhibition curve of each compound was plotted with the osteoclast differentiation inhibition rate as the ordinate and the logarithm of the compound concentration as the abscissa. According to the osteoclast differentiation inhibition rate by each compound, the half maximal inhibitory concentration IC50 was calculated, i.e., the concentration of the compound that is required for 50% osteoclast differentiation inhibition.
(§4) In addition, a selective inhibition constant of each compound was calculated according to the equation: selective inhibition constant (SI)=CC50/IC50, in order to evaluate the administration safety of each compound.
Based on the value of the selective index SI=CC50/IC50, the anti-osteoporotic differentiation effect of the compound was evaluated according to the following criteria.

[2] = Cytotoxicity assay (MTT) on RAW264.7 cells; format: cell-based; conditions: mouse, RAW264.7 cell growth inhibition, MTT method
Experimental: Example 32: Cytotoxicity Assay of Compounds
as §1, §2
The logarithmic growth phase cells were collected and formulated into a cell suspension at a concentration of 1×10^5 cells/mL, and the cell suspension was added to a 96-well cell culture plate. After culturing in a carbon dioxide incubator for 24 hours, the culture medium was replaced with a medium containing the compound at different concentrations to continue culturing for 2 days, and the cytotoxicity was detected on day 3. The compound to be tested was prepared into solutions of different concentrations using DMSO. Three wells were set for each concentration, and a control group without the compound treatment was set for comparison. […]
as §3
The RAW264.7 cell growth inhibition rate by each compound was calculated according to the following equation: […]
A cell growth inhibition curve of each compound was plotted with the RAW264.7 cell growth inhibition rate as the ordinate and the logarithm of the compound concentration as the abscissa. According to the inhibition rate of each compound on the cells, the 50% cytotoxic concentration CC50 was calculated, i.e., the concentration of the compound that is required for 50% inhibition of cell growth.
as §4

Row | IC50 ([1]; Mus musculus, RAW264.7, 120 h) [µM] | IC50 [1] [µM] | SMILES | Therapeutic index SI (CC50/IC50) [1] | CC50 at 2 days [2] [µM]
1 | 1.24 |  | CCOC(=O)c1sc(NC(=O)/C(=N/Nc2ccccc2C(=O)O)C(C)=O)nc1C [Compound 1] | 50 | 62.5
2 | 0.73 |  | CCOC(=O)c1sc(NC(=O)/C(=N/Nc2ccc(C(=O)O)cc2)C(C)=O)nc1C [Compound 2] | 95 | 69.2
3 |  | 0.05 | CCOC(=O)c1sc(NC(=O)/C(=N/Nc2cccc(C(=O)O)c2)C(C)=O)nc1C [Compound 3] | 1625 | 81.2
4 | 1.26 |  | CCOC(=O)c1sc(NC(=O)/C(=N/Nc2ccccc2C(=O)OC)C(C)=O)nc1C [Compound 4] | 65 | 82.1
5 | 2.45 |  | CCOC(=O)c1sc(NC(=O)/C(=N/Nc2ccccc2O)C(C)=O)nc1C [Compound 5] | 21 | 52.6
6 | 12.1 |  | CCOC(=O)c1sc(NC(=O)/C(=N/Nc2ccccc2CO)C(C)=O)nc1C [Compound 6] | 6 | 77.9
7 | 0.99 |  | CCOC(=O)c1sc(NC(=O)/C(=N/Nc2c(C)cccc2C(=O)O)C(C)=O)nc1C [Compound 7] | 63 | 62.8
8 | 3.85 |  | CCOC(=O)c1sc(NC(=O)/C(=N/Nc2cc(C)ccc2C(=O)O)C(C)=O)nc1C [Compound 8] | 15 | 57.2
9 | 4.63 |  | CCOC(=O)c1sc(NC(=O)/C(=N/Nc2ccc(C)cc2C(=O)O)C(C)=O)nc1C [Compound 9] | 19 | 89
10 | 0.4 |  | CCOC(=O)c1sc(NC(=O)/C(=N/Nc2ccc(F)cc2C(=O)O)C(C)=O)nc1C [Compound 10] | 308 | 123
11 | 1.02 |  | CCOC(=O)c1sc(NC(=O)/C(=N/Nc2cc(F)ccc2C(=O)O)C(C)=O)nc1C [Compound 11] | 56 | 57.2
12 |  | 0.23 | CCOC(=O)c1sc(NC(=O)/C(=N/Nc2c(C#N)cccc2C(=O)O)C(C)=O)nc1C [Compound 12] | 1701 | 391
13 | 0.88 |  | CCOC(=O)c1sc(NC(=O)/C(=N/Nc2cc(C#N)ccc2C(=O)O)C(C)=O)nc1C [Compound 13] | 71 | 62.3
14 | 0.89 |  | CCOC(=O)c1sc(NC(=O)/C(=N/Nc2ccc([N+](=O)[O-])cc2C(=O)O)C(C)=O)nc1C [Compound 14] | 47 | 41.9
15 | 1.56 |  | CCOC(=O)c1sc(NC(=O)/C(=N/Nc2ccc(Cl)cc2C(=O)O)C(C)=O)nc1C [Compound 15] | 22 | 33.9
16 | 22.3 |  | CCOC(=O)c1sc(NC(=O)/C(=N/Nc2ccncc2C(=O)O)C(C)=O)nc1C [Compound 16] | 20 | 451
17 | 0.46 |  | CCOC(=O)c1sc(NC(=O)/C(=N/Nc2c(C(=O)O)cccc2C(=O)O)C(C)=O)nc1C [Compound 18] | 271 | 125
18 | 10.2 |  | CCOC(=O)c1sc(NC(=O)/C(=N/Nc2cc(C(=O)O)ccc2C(=O)O)C(C)=O)nc1C [Compound 19] | 20 | 202
19 | 1.23 |  | CCOC(=O)c1sc(NC(=O)/C(=N/Nc2ccc(N)cc2C(=O)O)C(C)=O)nc1C [Compound 20] | 40 | 49.1
20 | 2.58 |  | CC(=O)/C(=N\Nc1ccccc1C(=O)O)C(=O)Nc1nc(C)cs1 [Compound 21] | 85 | 220
21 | 3.66 |  | CC(=O)/C(=N\Nc1ccccc1C(=O)O)C(=O)Nc1nccs1 [Compound 22] | 41 | 149
22 | 0.78 |  | CC(=O)/C(=N\Nc1ccccc1C(=O)O)C(=O)Nc1nc2ccccc2s1 [Compound 23] | 53 | 41.1
23 | 11.1 |  | CC(=O)/C(=N\Nc1ccccc1C(=O)O)C(=O)Nc1ccccc1 [Compound 24] | 7 | 75.2
24 | 0.36 | 0.27 | CC(=O)/C(=N\Nc1ccccc1C(=O)O)C(=O)Nc1ccccn1 [Compound 25] | 301 | 81.2
25 | 8.85 |  | CC(=O)/C(=N\Nc1ccccc1C(=O)O)C(=O)NC1CCNCC1 [Compound 26] | 7 | 65.8
26 | 9.03 |  | CC(=O)/C(=N\Nc1ccccc1C(=O)O)C(=O)N1CCc2ccccc2C1 [Compound 27] | 15 | 135
27 | 0.99 |  | CC(=O)/C(=N\Nc1ccccc1C(=O)O)C(=O)N1CCOCC1 [Compound 28] | 77 | 76.2
28 | 3.21 |  | CC(=O)/C(=N\Nc1ccccc1C(=O)O)C(=O)Nc1ccc(C#N)cn1 [Compound 29] | 37 | 119
29 | 15.4 |  | CC(=O)/C(=N\Nc1ccccc1C(=O)O)C(=O)Nc1cccc(O)n1 [Compound 30] | 13 | 198
